Literature values as cited in article PMC10544023, “Oxetanes in Drug Discovery Campaigns” (Journal of Medicinal Chemistry, 2023).
One block for each molecule: values may come before it.

Legend:
[1] = tested on: LRRK2; design: method as in ref 49 = [49]; a Liang J.; Jakalian A.; Lambrecht M. J.; Larouche-Gauthier R.; Huestis M.; Ung M. U.; Wang X.; Yadav A.; Zbieg J. R.; Broccatelli F. Lactams as Cbl-b Inhibitors , WO Patent Appl. no. WO20221; settings: read-out: LRRK2 inhibitor IC50
[2] = tested on: PDGFRα D842V; design: method as in ref 49 = [49]; a Liang J.; Jakalian A.; Lambrecht M. J.; Larouche-Gauthier R.; Huestis M.; Ung M. U.; Wang X.; Yadav A.; Zbieg J. R.; Broccatelli F. Lactams as Cbl-b Inhibitors , WO Patent Appl. no. WO20221
[3] = tested on: KIT D816V; design: method as in ref 49 = [49]; a Liang J.; Jakalian A.; Lambrecht M. J.; Larouche-Gauthier R.; Huestis M.; Ung M. U.; Wang X.; Yadav A.; Zbieg J. R.; Broccatelli F. Lactams as Cbl-b Inhibitors , WO Patent Appl. no. WO20221
[4] = tested on: hERG; design: method as in PMID 24900569; settings: ref 37a
[5] = amine nitrogen; ref 37a
[6] = tested on: Cbl-b; design: method as in ref 49 = [49]; a Liang J.; Jakalian A.; Lambrecht M. J.; Larouche-Gauthier R.; Huestis M.; Ung M. U.; Wang X.; Yadav A.; Zbieg J. R.; Broccatelli F. Lactams as Cbl-b Inhibitors , WO Patent Appl. no. WO20221; settings: read-out: Cbl-b inhibitor IC50
[7] = tested on: c-KIT (V654A); design: method as in ref 49 = [49]; a Liang J.; Jakalian A.; Lambrecht M. J.; Larouche-Gauthier R.; Huestis M.; Ung M. U.; Wang X.; Yadav A.; Zbieg J. R.; Broccatelli F. Lactams as Cbl-b Inhibitors , WO Patent Appl. no. WO20221
[8] = tested on: EZH2; design: method as in ref 49 = [49]; a Liang J.; Jakalian A.; Lambrecht M. J.; Larouche-Gauthier R.; Huestis M.; Ung M. U.; Wang X.; Yadav A.; Zbieg J. R.; Broccatelli F. Lactams as Cbl-b Inhibitors , WO Patent Appl. no. WO20221; settings: read-out: EZH2 inhibitor IC50
[9] = tested on: LRRK2 (WT); design: method as in ref 49 = [49]; a Liang J.; Jakalian A.; Lambrecht M. J.; Larouche-Gauthier R.; Huestis M.; Ung M. U.; Wang X.; Yadav A.; Zbieg J. R.; Broccatelli F. Lactams as Cbl-b Inhibitors , WO Patent Appl. no. WO20221; settings: read-out: LRRK2 inhibitor (WT) IC50
[10] = tested on: rat; design: method as in ref 33a = [33]; a Crawford J. J.; Zhang H. In ACS Symposium Series; American Chemical Society , 2019; Vol. 1332 , pp 239 – 266 . b For an overview of all clinical trials and further investigations, see: Drug Bank; settings: rat pilot study; ref 33a
[11] = tested on: dog; design: method as in ref 33a = [33]; a Crawford J. J.; Zhang H. In ACS Symposium Series; American Chemical Society , 2019; Vol. 1332 , pp 239 – 266 . b For an overview of all clinical trials and further investigations, see: Drug Bank; settings: dog pilot study; ref 33a
[12] = tested on: T- versus B-cells; design: method as in PMID 32292557; settings: selectivity of T- versus B-cells; ref 35a

SMILES: CCN1CCN(c2ccc(Nc3nc(-c4ccc5cn[nH]c5c4)cn4ccnc34)cc2)CC1 [4-ethyl-piperazine]
calcd pKaH (piperazine analogues of entospletinib, ref 35a): 8.0

SMILES: C[C@](N)(c1ccc(F)cc1)c1cnc(N2CCN(c3ncnn4cc(-c5cnn(CC6COC6)c5)cc34)CC2)nc1 [Bluprint Medicines WO 2020/210293 A1]
IC50 [2]: < 4.5 nM | IC50 [3]: < 4.5 nM

SMILES: CCNC(=O)Nc1ccc(-c2nc3c(c(N4CCOC[C@@H]4C)n2)CCN(C2COC2)C3)cc1 [GDC-0349]
IC50 [4]: > 100000 nM | pKaH [5]: 5.0

SMILES: Cn1ncc(-c2ccc(CNc3cc(-c4cnc5cc(OCCN6CC7(COC7)C6)ccn45)ncn3)cc2)n1 [Merck WO 2021/013864 A1]
IC50 [7]: 3.3 nM

SMILES: Cc1ccc2ccc(N[C@H]3CC[C@H](CNc4ncc(C(F)(F)C(=O)NC5COC5)cn4)CC3)nc2c1Cl [Novartis WO 2022/033492 A1]
IC50 [8]: < 10 nM

SMILES: C[C@H](C(F)F)n1cc(Nc2ncc3cc(C#N)n([C@H]4COC[C@@H]4C)c3n2)c(OC2COC2)n1 [Sanofi WO 2022/263472 A1]
IC50 [9]: 1 nM

SMILES: CN1CCN(c2ccc(Nc3cc(-c4cccc(N5CCc6c(sc7c6CC(C)(C)C7)C5=O)c4CO)cn(C)c3=O)nc2)CC1 [compound 4]
hepatotoxicity [10]: high hepatotoxicity | hepatotoxicity [11]: high hepatotoxicity

SMILES: c1cn2cc(-c3ccc4cn[nH]c4c3)nc(Nc3ccc(N4CCN(C5COC5)CC4)cc3)c2n1 [oxetane on the 4-position]
T/B ratio [12]: 10

Next, values leading:

IC50 [1]: < 10 nM
SMILES: O=C1NCCCOc2ccc3[nH]nc(c3c2)-c2cc(cc(N3CCC4(COC4)C3)c2)CO1

pKaH (predicted) (piperazine ring): 6.3
SMILES: C[C@H]1CN(C2COC2)CCN1c1ccc(Nc2cc(-c3ccnc(N4CCn5c(cc6c5CC(C)(C)C6)C4=O)c3CO)cn(C)c2=O)nc1 [Fenebrutinib, fenebrutinib]

IC50 [6]: 5.5 nM
SMILES: CC(C)[C@@H]1CN(C)CCN1Cc1cc2c(c(C(F)(F)F)c1)CN(c1cc(C3(Cc4nncn4C)COC3)cc(OC3CCCC3)n1)C2=O [Genentech WO 2022/169997 A1]
